Measured values as given in ChEMBL document CHEMBL5360618, “PepScaf: Harnessing Machine Learning with In Vitro Selection toward De Novo Macrocyclic Peptides against IL-17C/IL-17RE Interaction” (J Med Chem, 2023).
Positions of bridges follow the written chain, without caps; N, C: chain ends. Residues, ends and D or L forms follow the SMILES beside them.

Biological target: T1, IL17-RE-IL-17C (Homo sapiens, UniProt Q8NFR9+Q9P0M4)
T1 sequence (Q9P0M4 whole entry): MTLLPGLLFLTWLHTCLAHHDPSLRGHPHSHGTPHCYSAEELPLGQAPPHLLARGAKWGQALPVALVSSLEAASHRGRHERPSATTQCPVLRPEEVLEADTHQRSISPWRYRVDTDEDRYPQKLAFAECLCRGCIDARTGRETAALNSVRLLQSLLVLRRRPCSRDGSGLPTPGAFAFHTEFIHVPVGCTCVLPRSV
T1 sequence (Q8NFR9 whole entry): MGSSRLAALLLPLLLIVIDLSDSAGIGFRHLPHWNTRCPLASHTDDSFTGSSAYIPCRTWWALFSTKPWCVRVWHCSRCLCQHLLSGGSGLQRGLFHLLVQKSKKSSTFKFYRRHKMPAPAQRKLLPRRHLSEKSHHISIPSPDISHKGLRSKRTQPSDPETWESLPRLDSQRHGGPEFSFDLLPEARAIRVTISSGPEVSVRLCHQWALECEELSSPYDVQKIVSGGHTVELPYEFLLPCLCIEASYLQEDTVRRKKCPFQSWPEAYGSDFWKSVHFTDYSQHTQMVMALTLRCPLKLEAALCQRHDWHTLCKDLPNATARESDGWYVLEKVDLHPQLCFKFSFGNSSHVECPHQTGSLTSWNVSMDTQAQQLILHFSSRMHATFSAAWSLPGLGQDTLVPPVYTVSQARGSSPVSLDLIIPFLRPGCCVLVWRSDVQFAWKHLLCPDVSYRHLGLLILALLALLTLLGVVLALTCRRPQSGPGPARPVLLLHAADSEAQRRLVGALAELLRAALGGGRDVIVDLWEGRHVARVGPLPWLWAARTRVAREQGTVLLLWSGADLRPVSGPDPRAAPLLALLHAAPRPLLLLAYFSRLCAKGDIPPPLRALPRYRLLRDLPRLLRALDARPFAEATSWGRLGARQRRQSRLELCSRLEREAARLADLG
Assay: Inhibition of IL-17C/IL-17RE interaction (unknown origin) incubated for 1.5 hrs by ELISA method
Format: protein-complex assay

Row | Compound | IC50
1 | CC[C@H](C)[C@@H]1NC(=O)CNC(=O)[C@H](Cc2ccc(O)cc2)NC(=O)[C@H](Cc2ccc(O)cc2)NC(=O)[C@H](Cc2c[nH]cn2)NC(=O)[C@H](Cc2c[nH]cn2)NC(=O)[C@H](Cc2ccc(O)cc2)NC(=O)CSC[C@@H](C(=O)NCC(N)=O)NC(=O)CNC(=O)[C@H](CC(C)C)NC(=O)[C@H](CCC(=O)O)NC(=O)CNC(=O)[C@H](Cc2ccc(O)cc2)NC(=O)[C@H](CC(C)C)NC1=O ({CH2CO}-YHHYYGILYGELGCG-NH2; thioether N-14) | > 30000 nM
2 | CC[C@H](C)[C@@H]1NC(=O)[C@H](CCCNC(=N)N)NC(=O)[C@H](Cc2ccc(O)cc2)NC(=O)[C@H](Cc2ccc(O)cc2)NC(=O)[C@H](Cc2c[nH]cn2)NC(=O)[C@H](Cc2c[nH]cn2)NC(=O)[C@H](Cc2ccc(O)cc2)NC(=O)CSC[C@@H](C(=O)NCC(N)=O)NC(=O)CNC(=O)[C@H](CC(C)C)NC(=O)[C@H](CCC(=O)O)NC(=O)CNC(=O)[C@H](Cc2ccc(O)cc2)NC(=O)[C@H](C)NC1=O ({CH2CO}-YHHYYRIAYGELGCG-NH2; thioether N-14) | > 30000 nM
3 | CC[C@H](C)[C@@H]1NC(=O)[C@H](CCCNC(=N)N)NC(=O)[C@H](Cc2ccc(O)cc2)NC(=O)[C@H](Cc2ccc(O)cc2)NC(=O)[C@H](Cc2c[nH]cn2)NC(=O)[C@H](Cc2c[nH]cn2)NC(=O)[C@H](Cc2ccc(O)cc2)NC(=O)CSC[C@@H](C(=O)NCC(N)=O)NC(=O)CNC(=O)[C@H](CC(C)C)NC(=O)[C@H](CCC(=O)O)NC(=O)CNC(=O)[C@H](C)NC(=O)[C@H](CC(C)C)NC1=O ({CH2CO}-YHHYYRILAGELGCG-NH2; thioether N-14) | > 30000 nM
4 | CC[C@H](C)[C@@H]1NC(=O)[C@H](CCCNC(=N)N)NC(=O)[C@H](Cc2ccc(O)cc2)NC(=O)[C@H](Cc2ccc(O)cc2)NC(=O)[C@H](Cc2c[nH]cn2)NC(=O)[C@H](Cc2c[nH]cn2)NC(=O)[C@H](Cc2ccc(O)cc2)NC(=O)CSC[C@@H](C(=O)NCC(N)=O)NC(=O)CNC(=O)[C@H](CC(C)C)NC(=O)[C@H](CCC(=O)O)NC(=O)CNC(=O)[C@H](Cc2ccccc2)NC(=O)[C@H](CC(C)C)NC1=O ({CH2CO}-YHHYYRILFGELGCG-NH2; thioether N-14) | 1230 nM
5 | CC[C@H](C)[C@@H]1NC(=O)[C@H](CCC(=O)O)NC(=O)CNC(=O)[C@H](Cc2ccc(O)cc2)NC(=O)[C@H](CC(C)C)NC(=O)[C@H]([C@@H](C)CC)NC(=O)[C@H](CCCNC(=N)N)NC(=O)[C@H](Cc2ccc(O)cc2)NC(=O)[C@H](Cc2ccc(O)cc2)NC(=O)[C@H](Cc2c[nH]cn2)NC(=O)[C@H](Cc2c[nH]cn2)NC(=O)[C@H](Cc2ccc(O)cc2)NC(=O)CSC[C@@H](C(=O)NCC(N)=O)NC(=O)CNC1=O ({CH2CO}-YHHYYRILYGEIGCG-NH2; thioether N-14) | 422 nM
6 | CC[C@H](C)[C@@H]1NC(=O)[C@H](CCCNC(=N)N)NC(=O)[C@H](Cc2ccc(O)cc2)NC(=O)[C@H](Cc2ccc(O)cc2)NC(=O)[C@H](Cc2c[nH]cn2)NC(=O)[C@H](Cc2c[nH]cn2)NC(=O)[C@H](Cc2ccc(O)cc2)NC(=O)CSC[C@@H](C(=O)NCC(N)=O)NC(=O)[C@H](C)NC(=O)[C@H](CC(C)C)NC(=O)[C@H](CCC(=O)O)NC(=O)CNC(=O)[C@H](Cc2ccc(O)cc2)NC(=O)[C@H](CC(C)C)NC1=O ({CH2CO}-YHHYYRILYGELACG-NH2; thioether N-14) | 865 nM
7 | CC[C@H](C)[C@@H]1NC(=O)[C@H](CCCNC(=N)N)NC(=O)[C@H](Cc2ccc(O)cc2)NC(=O)[C@H](Cc2ccc(O)cc2)NC(=O)[C@H](Cc2cnc[nH]2)NC(=O)[C@H](Cc2cnc[nH]2)NC(=O)[C@H](Cc2ccc(O)cc2)NC(=O)CSC[C@@H](C(=O)NCC(N)=O)NC(=O)CNC(=O)[C@@H]2CCCN2C(=O)[C@H](CCC(=O)O)NC(=O)CNC(=O)[C@H](Cc2ccc(O)cc2)NC(=O)[C@H](CC(C)C)NC1=O ({CH2CO}-YHHYYRILYGEPGCG-NH2; thioether N-14) | > 30000 nM
8 | CC[C@H](C)[C@@H]1NC(=O)[C@H](CCCNC(=N)N)NC(=O)[C@H](Cc2ccc(O)cc2)NC(=O)[C@H](Cc2ccc(O)cc2)NC(=O)[C@H](Cc2c[nH]cn2)NC(=O)[C@H](Cc2c[nH]cn2)NC(=O)[C@H](Cc2ccc(O)cc2)NC(=O)CSC[C@@H](C(=O)NCC(N)=O)NC(=O)CNC(=O)[C@H](CC(C)C)NC(=O)[C@H](C(C)C)NC(=O)CNC(=O)[C@H](Cc2ccc(O)cc2)NC(=O)[C@H](CC(C)C)NC1=O ({CH2CO}-YHHYYRILYGVLGCG-NH2; thioether N-14) | 442 nM
9 | CC[C@H](C)[C@@H]1NC(=O)[C@H](CCCNC(=N)N)NC(=O)[C@H](Cc2ccc(O)cc2)NC(=O)[C@H](Cc2ccc(O)cc2)NC(=O)[C@H](Cc2c[nH]cn2)NC(=O)[C@H](Cc2c[nH]cn2)NC(=O)[C@H](Cc2ccc(O)cc2)NC(=O)CSC[C@@H](C(=O)NCC(N)=O)NC(=O)CNC(=O)[C@H](CC(C)C)NC(=O)[C@H](CCC(=O)O)NC(=O)[C@H](CO)NC(=O)[C@H](Cc2ccc(O)cc2)NC(=O)[C@H](CC(C)C)NC1=O ({CH2CO}-YHHYYRILYSELGCG-NH2; thioether N-14) | 1340 nM

Continued, values first:

Row | IC50 | Compound
10 | 1670 nM | CC(C)C[C@@H]1NC(=O)[C@H](CCC(=O)O)NC(=O)CNC(=O)[C@H](Cc2ccc(O)cc2)NC(=O)[C@H](CC(C)C)NC(=O)[C@H](Cc2ccccc2)NC(=O)[C@H](CCCNC(=N)N)NC(=O)[C@H](Cc2ccc(O)cc2)NC(=O)[C@H](Cc2ccc(O)cc2)NC(=O)[C@H](Cc2c[nH]cn2)NC(=O)[C@H](Cc2c[nH]cn2)NC(=O)[C@H](Cc2ccc(O)cc2)NC(=O)CSC[C@@H](C(=O)NCC(N)=O)NC(=O)CNC1=O ({CH2CO}-YHHYYRFLYGELGCG-NH2; thioether N-14)
11 | > 30000 nM | CC[C@H](C)[C@@H]1NC(=O)[C@H](CCCNC(=N)N)NC(=O)[C@H](Cc2ccc(O)cc2)NC(=O)[C@H](Cc2ccc(O)cc2)NC(=O)[C@H](Cc2c[nH]cn2)NC(=O)[C@H](Cc2c[nH]cn2)NC(=O)[C@H](Cc2ccc(O)cc2)NC(=O)CSC[C@@H](C(=O)NCC(N)=O)NC(=O)CNC(=O)[C@H](CC(C)C)NC(=O)[C@H](CCC(=O)O)NC(=O)CNC(=O)[C@H](Cc2c[nH]cn2)NC(=O)[C@H](CC(C)C)NC1=O ({CH2CO}-YHHYYRILHGELGCG-NH2; thioether N-14)
12 | 1360 nM | CC[C@H](C)[C@@H]1NC(=O)[C@H](CCCNC(=N)N)NC(=O)[C@H](Cc2ccc(O)cc2)NC(=O)[C@H](Cc2ccc(O)cc2)NC(=O)[C@H](Cc2c[nH]cn2)NC(=O)[C@H](Cc2c[nH]cn2)NC(=O)[C@H](Cc2ccc(O)cc2)NC(=O)CSC[C@@H](C(=O)NCC(N)=O)NC(=O)CNC(=O)[C@H](CC(C)C)NC(=O)[C@H](CCC(=O)O)NC(=O)[C@H](C)NC(=O)[C@H](Cc2ccc(O)cc2)NC(=O)[C@H](CC(C)C)NC1=O ({CH2CO}-YHHYYRILYAELGCG-NH2; thioether N-14)
13 | 180 nM | CC[C@H](C)[C@@H]1NC(=O)[C@H](CCCNC(=N)N)NC(=O)[C@H](Cc2ccc(O)cc2)NC(=O)[C@H](Cc2ccc(O)cc2)NC(=O)[C@H](Cc2c[nH]cn2)NC(=O)[C@H](Cc2c[nH]cn2)NC(=O)[C@H](Cc2ccc(O)cc2)NC(=O)CSC[C@@H](C(=O)NCC(N)=O)NC(=O)CNC(=O)[C@H](CC(C)C)NC(=O)[C@H](C)NC(=O)CNC(=O)[C@H](Cc2ccc(O)cc2)NC(=O)[C@H](CC(C)C)NC1=O ({CH2CO}-YHHYYRILYGALGCG-NH2; thioether N-14)
14 | > 30000 nM | CC[C@H](C)[C@@H]1NC(=O)[C@H](CCCNC(=N)N)NC(=O)[C@H](Cc2ccc(O)cc2)NC(=O)[C@H](Cc2ccc(O)cc2)NC(=O)[C@H](Cc2c[nH]cn2)NC(=O)[C@H](Cc2c[nH]cn2)NC(=O)[C@H](Cc2ccc(O)cc2)NC(=O)CSC[C@@H](C(=O)NCC(N)=O)NC(=O)CNC(=O)[C@H](C)NC(=O)[C@H](CCC(=O)O)NC(=O)CNC(=O)[C@H](Cc2ccc(O)cc2)NC(=O)[C@H](CC(C)C)NC1=O ({CH2CO}-YHHYYRILYGEAGCG-NH2; thioether N-14)
15 | 166 nM | CC[C@H](C)[C@@H]1NC(=O)[C@H](CCCNC(=N)N)NC(=O)[C@H](Cc2ccc(O)cc2)NC(=O)[C@H](Cc2ccc(O)cc2)NC(=O)[C@H](Cc2c[nH]cn2)NC(=O)[C@H](Cc2c[nH]cn2)NC(=O)[C@H](Cc2ccc(O)cc2)NC(=O)CSC[C@@H](C(=O)NCC(N)=O)NC(=O)CNC(=O)[C@H](CC(C)C)NC(=O)[C@H](CCC(=O)O)NC(=O)CNC(=O)[C@H](Cc2ccc(O)cc2)NC(=O)[C@H](CC(C)C)NC1=O ({CH2CO}-YHHYYRILYGELGCG-NH2; thioether N-14)
16 | 211 nM | CC[C@H](C)[C@@H]1NC(=O)[C@H](CCCNC(=N)N)NC(=O)[C@H](Cc2ccc(O)cc2)NC(=O)[C@H](Cc2ccc(O)cc2)NC(=O)[C@H](Cc2c[nH]cn2)NC(=O)[C@H](Cc2c[nH]cn2)NC(=O)[C@H](Cc2ccc(O)cc2)NC(=O)CSC[C@@H](C(=O)NCC(N)=O)NC(=O)CNC(=O)[C@H](CC(C)C)NC(=O)CNC(=O)CNC(=O)[C@H](Cc2ccc(O)cc2)NC(=O)[C@H](CC(C)C)NC1=O ({CH2CO}-YHHYYRILYGGLGCG-NH2; thioether N-14)
